Patent US9133194B2, “Cyclic tripeptide mimetics as plasmin inhibitors” (priority 2011, dated 2015)
Where two headings read alike, the source gives them in different places.

Assays:
plasmin = plasmin (Homo sapiens, UniProt P00747); experiment: Enzyme-kinetic determination of inhibition constants, plasmin (Chromozym PL); type: biochemical
Text: (§1) The Ki values are the mean value of at least two determinations.

plasma kallikrein = plasma kallikrein (Homo sapiens, UniProt P03952); experiment: Enzyme-kinetic determination of inhibition constants, plasma kallikrein (Haemochrom PK); type: biochemical; settings: Tris-HCl buffer pH 8.0, Dixon, mean of at least two determinations
Text: as §1

Thrombin (bovine) = Thrombin (bovine) (Bos taurus, UniProt P00735); experiment: Enzyme-kinetic determination of inhibition constants, thrombin (Pefachrome tPA); type: biochemical; settings: Tris-HCl buffer pH 8.0, Dixon, mean of at least two determinations
Text: as §1

Factor Xa (human) = Factor Xa (human) (Homo sapiens, UniProt P00742); experiment: Enzyme-kinetic determination of inhibition constants, factor Xa (Pefachrome FXa); type: biochemical; settings: Tris-HCl buffer pH 8.0, Dixon, mean of at least two determinations
Text: as §1

trypsin = settings: background, aprotinin; read-out: K for trypsin; cited from earlier work
[1] = cited from earlier work
[2] = Tris-HCl buffer pH 8.0, Dixon, mean of at least two determinations, read-out: Ki Plasmin

Chain of Factor Xa (human) (P00742 235-488 limits assumed): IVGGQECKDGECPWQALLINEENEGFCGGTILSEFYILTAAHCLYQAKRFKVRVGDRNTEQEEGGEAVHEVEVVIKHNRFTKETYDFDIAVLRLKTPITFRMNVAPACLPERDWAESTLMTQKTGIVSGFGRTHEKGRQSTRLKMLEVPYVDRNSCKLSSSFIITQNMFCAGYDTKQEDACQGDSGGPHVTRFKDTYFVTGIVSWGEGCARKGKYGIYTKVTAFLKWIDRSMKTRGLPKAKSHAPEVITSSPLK
Chain of Factor Xa (human) (P00742 41-179 partner limits assumed): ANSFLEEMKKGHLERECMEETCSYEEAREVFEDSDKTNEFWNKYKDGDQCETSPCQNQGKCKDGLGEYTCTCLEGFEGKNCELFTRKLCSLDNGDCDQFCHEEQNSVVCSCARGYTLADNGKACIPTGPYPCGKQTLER
Chain of plasma kallikrein (P03952 391-638 limits assumed): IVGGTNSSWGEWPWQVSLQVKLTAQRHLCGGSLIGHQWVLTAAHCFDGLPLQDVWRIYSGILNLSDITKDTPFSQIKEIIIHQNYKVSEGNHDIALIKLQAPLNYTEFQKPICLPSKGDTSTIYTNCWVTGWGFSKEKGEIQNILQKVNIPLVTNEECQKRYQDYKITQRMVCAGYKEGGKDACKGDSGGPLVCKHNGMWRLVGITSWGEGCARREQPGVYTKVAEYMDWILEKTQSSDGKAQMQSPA
Chain of plasma kallikrein (P03952 20-390 partner limits assumed): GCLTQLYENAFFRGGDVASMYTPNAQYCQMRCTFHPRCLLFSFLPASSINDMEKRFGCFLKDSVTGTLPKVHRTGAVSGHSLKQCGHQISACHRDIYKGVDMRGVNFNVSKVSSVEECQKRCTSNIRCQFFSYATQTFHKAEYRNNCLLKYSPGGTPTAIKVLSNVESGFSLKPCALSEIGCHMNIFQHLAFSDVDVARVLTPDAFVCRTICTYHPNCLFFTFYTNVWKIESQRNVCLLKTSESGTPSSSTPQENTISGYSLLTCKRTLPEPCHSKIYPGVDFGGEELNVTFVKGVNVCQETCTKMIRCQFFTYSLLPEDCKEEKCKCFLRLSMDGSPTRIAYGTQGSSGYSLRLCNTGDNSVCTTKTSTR
Chain of plasmin (P00747 581-810 limits assumed): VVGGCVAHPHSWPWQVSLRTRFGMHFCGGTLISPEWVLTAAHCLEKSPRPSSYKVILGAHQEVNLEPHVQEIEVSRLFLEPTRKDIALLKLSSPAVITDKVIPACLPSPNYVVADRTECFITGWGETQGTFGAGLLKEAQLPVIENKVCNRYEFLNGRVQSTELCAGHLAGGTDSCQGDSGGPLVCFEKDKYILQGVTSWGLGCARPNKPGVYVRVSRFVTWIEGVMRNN
Chain of plasmin (P00747 97-580 partner limits assumed): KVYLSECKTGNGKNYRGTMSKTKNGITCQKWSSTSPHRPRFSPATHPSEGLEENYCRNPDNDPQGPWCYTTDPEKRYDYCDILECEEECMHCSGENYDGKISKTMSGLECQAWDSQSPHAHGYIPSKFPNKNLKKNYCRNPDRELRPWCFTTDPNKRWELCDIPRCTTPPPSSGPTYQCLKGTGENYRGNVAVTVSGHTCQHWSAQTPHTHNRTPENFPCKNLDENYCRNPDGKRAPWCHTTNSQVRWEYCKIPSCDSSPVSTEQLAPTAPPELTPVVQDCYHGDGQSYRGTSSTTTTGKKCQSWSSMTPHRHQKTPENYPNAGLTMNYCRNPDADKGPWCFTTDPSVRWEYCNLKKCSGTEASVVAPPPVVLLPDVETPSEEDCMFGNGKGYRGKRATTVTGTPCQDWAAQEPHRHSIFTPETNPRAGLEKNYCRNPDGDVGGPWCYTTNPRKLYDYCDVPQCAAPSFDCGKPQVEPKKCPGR

Molecule | Ki (plasmin) [nM] | Ki (plasma kallikrein) [µM] | Ki (Thrombin (bovine)) [µM] | Ki (Factor Xa (human)) [µM] | Ki (plasmin; [2]) [nM] | Ki (trypsin) [nM] | risk of an anaphylactic shock ([1]; aprotinin applied for the first time) [%] | risk of myocardial infarction and apoplectic stroke ([1]; compared to the control groups) | number of cases of kidney damage requiring subsequent dialysis ([1]; comparison with ε-aminocaproic acid or tranexamic acid (Mangano et al.)) | risk of an anaphylactic shock ([1]; repeated administration within 200 days)
N=C(N)c1ccc(CNC(=O)[C@@H]2Cc3ccc(cc3)NC(=O)CCN3CCN(CCC(=O)Nc4ccc(cc4)C[C@@H](NS(=O)(=O)NC4CCCCC4)C(=O)N2)CC3)cc1 [Inhibitor 1] | 0.052 | 0.6 | 17 | 7.4 | – | – | – | – | – | –
N=C(N)c1ccc(CNC(=O)[C@@H]2Cc3ccc(cc3)NC(=O)CN3CCN(CC3)CC(=O)Nc3ccc(cc3)C[C@@H](NS(=O)(=O)NC3CCCCC3)C(=O)N2)cc1 [Inhibitor 2] | 0.32 | 0.319 | 16 | 7.9 | – | – | – | – | – | –
NCc1ccc(CNC(=O)[C@@H]2Cc3ccc(cc3)NC(=O)CCN3CCN(CCC(=O)Nc4ccc(cc4)C[C@@H](NS(=O)(=O)Cc4ccccc4)C(=O)N2)CC3)cc1 [Inhibitor 3] | 1.24 | 6.38 | 141 | 78 | – | – | – | – | – | –
N=C(N)c1ccc(CNC(=O)[C@@H]2Cc3ccc(cc3)NC(=O)CCN3CCN(CCC(=O)Nc4ccc(cc4)C[C@@H](NC(=O)Cc4ccccc4)C(=O)N2)CC3)cc1 [Inhibitor 4] | – | 7.92 | 41.8 | 188 | 8 | – | – | – | – | –
N=C(N)c1ccc(CNC(=O)[C@@H]2Cc3ccc(cc3)NC(=O)CCN3CCN(CCC(=O)Nc4ccc(cc4)C[C@@H](NC(=O)OCc4ccccc4)C(=O)N2)CC3)cc1 [Inhibitor 5] | – | 6.95 | 44 | 47.4 | 0.77 | – | – | – | – | –
N=C(N)c1ccc(CNC(=O)[C@@H]2Cc3ccc(cc3)NC(=O)CCN3CCN(CCC(=O)Nc4ccc(cc4)C[C@@H](N)C(=O)N2)CC3)cc1 [Inhibitor 6] | 12.8 | 24.5 | 60.8 | 405 | – | – | – | – | – | –
CC1(C)C(=O)Nc2ccc(cc2)C[C@@H](C(=O)NCc2ccc(C(=N)N)cc2)NC(=O)[C@H](NS(=O)(=O)Cc2ccccc2)Cc2ccc(cc2)NC(=O)C(C)(C)N2CCN1CC2 [Inhibitor 7] | – | 0.077 | 0.62 | 1.45 | 2.2 | – | – | – | – | –
N=C(N)c1ccc(CNC(=O)[C@@H]2Cc3ccc(cc3)NC(=O)CN3CCN(CC3)CC(=O)Nc3ccc(cc3)C[C@@H](NC(=O)OCc3ccccc3)C(=O)N2)cc1 [Inhibitor 11] | – | 4.64 | 46.9 | 104 | 5.4 | – | – | – | – | –
N=C(N)NCCCCNC(=O)[C@@H]1Cc2ccc(cc2)NC(=O)CCN2CCN(CCC(=O)Nc3ccc(cc3)C[C@@H](NS(=O)(=O)NC3CCCCC3)C(=O)N1)CC2 [Inhibitor 13] | – | – | – | – | 3.5 | – | – | – | – | –
CN(C)S(=O)(=O)N[C@@H]1Cc2ccc(cc2)NC(=O)CN2CCN(CC2)CC(=O)Nc2ccc(cc2)C[C@@H](C(=O)NCc2ccc(C(=N)N)cc2)NC1=O [Inhibitor 14] | 5.9 | 12 | 4.96 | 134 | – | – | – | – | – | –
aprotinin | – | – | – | – | – | 0.1 | < 0.1 | increased | doubling | 4-5%
